#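 48-hour exposure; five concentrations; linearly interpolated endpoints. GI50 = concentration required for 50% inhibition of growth. Definition used: TGI = concentration required for complete inhibition of growth.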
# What was measured:
# Experiment in all cases: NCI-60 cell line screen, 48 h
# IGROV1 ovarian = system: IGROV1 ovarian
# SN12C renal = system: SN12C renal
# MDA-MB-231 breast = system: MDA-MB-231 breast
# HCC-2998 colon = system: HCC-2998 colon
# A549 NSCLC = system: A549 NSCLC
# NCI-H23 lung = system: NCI-H23 lung
# MDA-MB-435 = system: MDA-MB-435
# MOLT-4 leukemia = system: MOLT-4 leukemia
# LOX IMVI melanoma = system: LOX IMVI melanoma
# ACHN renal = system: ACHN renal
# HT29 colon = system: HT29 colon
# UACC-62 melanoma = system: UACC-62 melanoma
# DU-145 prostate = system: DU-145 prostate
# SF-268 CNS = system: SF-268 CNS
# NCI/ADR-RES ovarian = system: NCI/ADR-RES ovarian
# HOP-62 NSCLC = system: HOP-62 NSCLC
# CCRF-CEM leukemia = system: CCRF-CEM leukemia
# OVCAR-4 ovarian = system: OVCAR-4 ovarian
# UO-31 renal = system: UO-31 renal
# SNB-75 CNS = system: SNB-75 CNS
# NCI-H226 lung = system: NCI-H226 lung
# HCT-15 colon = system: HCT-15 colon
# MALME-3M melanoma = system: MALME-3M melanoma
# COLO 205 colon = system: COLO 205 colon
# EKVX NSCLC = system: EKVX NSCLC
# HL-60(TB) leukemia = system: HL-60(TB) leukemia
# SK-MEL-5 melanoma = system: SK-MEL-5 melanoma
# RPMI-8226 leukemia = system: RPMI-8226 leukemia
# MCF7 breast = system: MCF7 breast
# NCI-H460 lung = system: NCI-H460 lung
# SF-295 CNS = system: SF-295 CNS
# SR leukemia = system: SR leukemia
# SK-MEL-28 melanoma = system: SK-MEL-28 melanoma
# OVCAR-5 ovarian = system: OVCAR-5 ovarian
# TK-10 renal = system: TK-10 renal
# HOP-92 NSCLC = system: HOP-92 NSCLC
# OVCAR-3 ovarian = system: OVCAR-3 ovarian
# SW-620 colon = system: SW-620 colon
# HCT-116 colon = system: HCT-116 colon
# M14 melanoma = system: M14 melanoma
# PC-3 prostate = system: PC-3 prostate
# A498 renal = system: A498 renal
# 786-0 renal = system: 786-0 renal
# OVCAR-8 ovarian = system: OVCAR-8 ovarian
# HS 578T breast = system: HS 578T breast
# SK-OV-3 ovarian = system: SK-OV-3 ovarian
# SK-MEL-2 melanoma = system: SK-MEL-2 melanoma
# KM12 colon = system: KM12 colon
# UACC-257 melanoma = system: UACC-257 melanoma
# BT-549 breast = system: BT-549 breast
# K-562 leukemia = system: K-562 leukemia
# NCI-H522 lung = system: NCI-H522 lung
# CAKI-1 renal = system: CAKI-1 renal
# SNB-19 CNS = system: SNB-19 CNS
# T-47D breast = system: T-47D breast
# RXF 393 renal = system: RXF 393 renal
# SF-539 CNS = system: SF-539 CNS
# U251 CNS = system: U251 CNS
compound,measurement,setting,value
CC1(C)N=C(N)N=C(N)N1c1cccc(CCCCc2ccccc2)c1,GI50,IGROV1 ovarian,135 nM
same,TGI,IGROV1 ovarian,10100 nM
same,GI50,SN12C renal,427 nM
same,TGI,SN12C renal,12300 nM
same,GI50,MDA-MB-231 breast,2470 nM
same,TGI,MDA-MB-231 breast,21300 nM
same,GI50,HCC-2998 colon,195 nM
same,TGI,HCC-2998 colon,3820 nM
same,GI50,A549 NSCLC,38.2 nM
same,TGI,A549 NSCLC,1350 nM
same,GI50,NCI-H23 lung,402 nM
same,TGI,NCI-H23 lung,14100 nM
same,GI50,MDA-MB-435,61.6 nM
same,TGI,MDA-MB-435,11900 nM
same,GI50,MOLT-4 leukemia,319 nM
same,TGI,MOLT-4 leukemia,8760 nM
same,GI50,LOX IMVI melanoma,62 nM
same,TGI,LOX IMVI melanoma,14900 nM
same,GI50,ACHN renal,3220 nM
same,TGI,ACHN renal,19700 nM
same,GI50,HT29 colon,54.3 nM
same,TGI,HT29 colon,11600 nM
same,GI50,UACC-62 melanoma,186 nM
same,TGI,UACC-62 melanoma,10900 nM
same,GI50,DU-145 prostate,351 nM
same,TGI,DU-145 prostate,15000 nM
same,GI50,SF-268 CNS,73.5 nM
same,TGI,SF-268 CNS,15000 nM
same,GI50,NCI/ADR-RES ovarian,> 73400 nM
same,TGI,NCI/ADR-RES ovarian,> 100000 nM
same,GI50,HOP-62 NSCLC,556 nM
same,TGI,HOP-62 NSCLC,22200 nM
same,GI50,CCRF-CEM leukemia,123 nM
same,TGI,CCRF-CEM leukemia,7040 nM
same,GI50,OVCAR-4 ovarian,433 nM
same,TGI,OVCAR-4 ovarian,18800 nM
same,GI50,UO-31 renal,10200 nM
same,TGI,UO-31 renal,32000 nM
same,GI50,SNB-75 CNS,3060 nM
same,TGI,SNB-75 CNS,16300 nM
same,GI50,NCI-H226 lung,2350 nM
same,TGI,NCI-H226 lung,24500 nM
same,GI50,HCT-15 colon,1730 nM
same,TGI,HCT-15 colon,21700 nM
same,GI50,MALME-3M melanoma,2310 nM
same,TGI,MALME-3M melanoma,14800 nM
same,GI50,COLO 205 colon,448 nM
same,TGI,COLO 205 colon,2360 nM
same,GI50,EKVX NSCLC,870 nM
same,TGI,EKVX NSCLC,20600 nM
same,GI50,HL-60(TB) leukemia,92.5 nM
same,TGI,HL-60(TB) leukemia,2520 nM
same,GI50,SK-MEL-5 melanoma,198 nM
same,TGI,SK-MEL-5 melanoma,1360 nM
same,GI50,RPMI-8226 leukemia,289 nM
same,TGI,RPMI-8226 leukemia,2720 nM
same,GI50,MCF7 breast,312 nM
same,TGI,MCF7 breast,10200 nM
same,GI50,NCI-H460 lung,49.3 nM
same,TGI,NCI-H460 lung,11400 nM
same,GI50,SF-295 CNS,229 nM
same,TGI,SF-295 CNS,5790 nM
same,GI50,SR leukemia,188 nM
same,TGI,SR leukemia,2890 nM
same,GI50,SK-MEL-28 melanoma,894 nM
same,TGI,SK-MEL-28 melanoma,15600 nM
same,GI50,OVCAR-5 ovarian,11100 nM
same,TGI,OVCAR-5 ovarian,25900 nM
same,GI50,TK-10 renal,704 nM
same,TGI,TK-10 renal,20300 nM
same,GI50,HOP-92 NSCLC,326 nM
same,TGI,HOP-92 NSCLC,4440 nM
same,GI50,OVCAR-3 ovarian,350 nM
same,TGI,OVCAR-3 ovarian,8740 nM
same,GI50,SW-620 colon,53.2 nM
same,TGI,SW-620 colon,16400 nM
same,GI50,HCT-116 colon,50.1 nM
same,TGI,HCT-116 colon,17000 nM
same,GI50,M14 melanoma,657 nM
same,TGI,M14 melanoma,18600 nM
same,GI50,PC-3 prostate,49.7 nM
same,TGI,PC-3 prostate,3090 nM
same,GI50,A498 renal,1750 nM
same,TGI,A498 renal,15900 nM
same,GI50,786-0 renal,518 nM
same,TGI,786-0 renal,16400 nM
same,GI50,OVCAR-8 ovarian,262 nM
same,TGI,OVCAR-8 ovarian,16000 nM
same,GI50,HS 578T breast,4570 nM
same,TGI,HS 578T breast,28500 nM
same,GI50,SK-OV-3 ovarian,1980 nM
same,TGI,SK-OV-3 ovarian,17000 nM
same,GI50,SK-MEL-2 melanoma,1820 nM
same,TGI,SK-MEL-2 melanoma,11400 nM
same,GI50,KM12 colon,212 nM
same,TGI,KM12 colon,1860 nM
same,GI50,UACC-257 melanoma,780 nM
same,TGI,UACC-257 melanoma,12100 nM
same,GI50,BT-549 breast,901 nM
same,TGI,BT-549 breast,3990 nM
same,GI50,K-562 leukemia,68.8 nM
same,TGI,K-562 leukemia,13600 nM
same,GI50,NCI-H522 lung,691 nM
same,TGI,NCI-H522 lung,13700 nM
same,GI50,CAKI-1 renal,4150 nM
same,TGI,CAKI-1 renal,22300 nM
same,GI50,SNB-19 CNS,907 nM
same,TGI,SNB-19 CNS,16600 nM
same,GI50,T-47D breast,1280 nM
same,TGI,T-47D breast,16200 nM
same,GI50,RXF 393 renal,2280 nM
same,TGI,RXF 393 renal,17200 nM
same,GI50,SF-539 CNS,212 nM
same,TGI,SF-539 CNS,7390 nM
same,GI50,U251 CNS,54.1 nM
same,TGI,U251 CNS,13500 nM

# — PubChem BioAssay (NCI)
